≈ marks a conversion by molar mass, not a printed value. Blank lines part the entries; values can stand above or below the compound they belong to.
How the values were obtained:
Pseudomonas aeruginosa [1] = assay: Antivirulence activity against Pseudomonas aeruginosa PAO1 assessed as reduction in pyocyanin level at 10 uM relative to control; format: functional; set-up: scale not given: the % may be the effect or the level left
Pseudomonas aeruginosa [2] = assay: Downregulation of rhlA mRNA level in Pseudomonas aeruginosa PAO1 at 32 ug/ml relative to control; format: functional; details: dose 32 µg/ml
[3] = Inhibition of quorum sensing system in Pseudomonas aeruginosa PAO1- rhlA-gfp assessed as reduction in fluorescence intensity measured for 12 hrs by GFP reporter strain assay
[4] = Inhibition of quorum sensing system in Pseudomonas aeruginosa PAO1-pqsA-gfp assessed as reduction in fluorescence intensity incubated for 12 hrs by GFP reporter strain assay
Pseudomonas aeruginosa [5] = assay: Antivirulence activity in Pseudomonas aeruginosa PAO1 assessed as reduction in elastase production at 10 uM relative to control; format: functional; set-up: scale not given: the % may be the effect or the level left
[6] = Inhibition of quorum sensing system in Pseudomonas aeruginosa PAO1 expressing lasB-gfp at 16 uM relative to control
Pseudomonas aeruginosa [7] = assay: Antibiofilm activity against Pseudomonas aeruginosa PA14 assessed as reduction in biofilm formation at 16 ug/ml incubated for 2 to 4 hrs by crystal violet staining based analysis relative to control; format: functional; set-up: scale not given: the % may be the effect or the level left; details: dose 16 µg/ml; time 2-4 hrs
Pseudomonas aeruginosa [8] = assay: Antibiofilm activity against Pseudomonas aeruginosa PAO1; format: functional, organism-based
Pseudomonas aeruginosa [9] = assay: Downregulation of lasR mRNA expression level in Pseudomonas aeruginosa PAO1 at 200 uM by RT-PCR analysis relative to control; format: functional
Pseudomonas aeruginosa [10] = assay: Downregulation of lasI mRNA expression level in Pseudomonas aeruginosa PAO1 at 200 uM by RT-PCR analysis relative to control; format: functional
Pseudomonas aeruginosa [11] = assay: Downregulation of rhlR mRNA expression level in Pseudomonas aeruginosa PAO1 at 200 uM by RT-PCR analysis relative to control; format: functional
Pseudomonas aeruginosa [12] = assay: Downregulation of rhlI mRNA expression level in Pseudomonas aeruginosa PAO1 at 200 uM by RT-PCR analysis relative to control; format: functional
[13] = Inhibition of quorum sensing system in Pseudomonas aeruginosa PAO1 expressing lasB-gfp
Pseudomonas aeruginosa [14] = assay: Antibiofilm activity against Pseudomonas aeruginosa ATCC 27853 assessed as reduction in biofilm biomass at 16 ug/ml relative to control; format: functional; set-up: scale not given: the % may be the effect or the level left; details: dose 16 µg/ml
Pseudomonas aeruginosa [15] = assay: Inhibition of rhamnolipid production in Pseudomonas aeruginosa PAO1; format: functional, organism-based
Pseudomonas aeruginosa [16] = assay: Inhibition of pyocyanin production in Pseudomonas aeruginosa PAO1; format: functional, organism-based
Pseudomonas aeruginosa [17] = assay: Anti-virulence activity in Pseudomonas aeruginosa PAO1 assessed as reduction in elastase production; format: functional, organism-based
Pseudomonas aeruginosa [18] = assay: Antibacterial activity against Pseudomonas aeruginosa PAO1 assessed as bacterial growth inhibition after 20 hrs by liquid microdilution method; format: functional, organism-based; details: PAO1, 20 h
Pseudomonas aeruginosa [19] = assay: Antivirulence activity against Pseudomonas aeruginosa PAO1 assessed as reduction in pyocyanin production; format: functional, organism-based
Pseudomonas aeruginosa [20] = assay: Antivirulence activity against Pseudomonas aeruginosa PAO1 assessed as reduction in elastase production; format: functional, organism-based
Pseudomonas aeruginosa [21] = assay: Antivirulence activity against Pseudomonas aeruginosa PAO1 assessed as reduction in protease production; format: functional, organism-based
Pseudomonas aeruginosa [22] = assay: Antibiofilm activity against Pseudomonas aeruginosa PAO1 assessed as inhibition of biofilm formation at 1 to 100 uM incubated for 24 hrs by crystal violet staining based assay relative to control; format: functional; set-up: scale not given: the % may be the effect or the level left; details: dose 1-100 µM
Pseudomonas aeruginosa [23] = assay: Inhibition of rhamnolipid production in Pseudomonas aeruginosa PAO1 incubated for 24 hrs by spectrophotometric analysis; format: functional, organism-based; details: PAO1, 24 h
[24] = Inhibition of quorum sensing system in Pseudomonas aeruginosa PAO1 expressing lasB-gfp assessed as reduction fluorescence intensity measured for 12 hrs by GFP reporter strain assay
Pseudomonas aeruginosa [25] = assay: Antibiofilm activity against Pseudomonas aeruginosa PAO1 assessed as inhibition of biofilm formation at 32 ug/ml incubated for 8 hrs by crystal violet staining based assay relative to control; format: functional; set-up: scale not given: the % may be the effect or the level left; details: dose 32 µg/ml

SMILES: C=C1CC(=O)N(CCCCCCCCCCCCCC)C1=O
Activity (Pseudomonas aeruginosa [1]): 55% | Activity (Pseudomonas aeruginosa [2]): 75% | IC50 [3]: 0.61 µM | IC50 [4]: 0.143 µM | Activity (Pseudomonas aeruginosa [5]): 50%

inhibition [6]: 44%
SMILES: CCCCCCC/C=C\C(=O)O
Activity (Pseudomonas aeruginosa [7]): 8%

SMILES: O=c1cc(-c2ccc(O)c(O)c2)oc2cc(O)cc(O)c12 [LUTEOLIN]
IC50 (Pseudomonas aeruginosa [8]): 50 µM | Activity (Pseudomonas aeruginosa [9]): 98% | Activity (Pseudomonas aeruginosa [10]): 98% | Activity (Pseudomonas aeruginosa [11]): 98% | Activity (Pseudomonas aeruginosa [12]): 98%

SMILES: O=C(/C=C/c1ccc(O)c(O)c1)OCCc1ccc(Br)cc1
IC50 [13]: 20 µM | Activity (Pseudomonas aeruginosa [14]): 33.69% | IC50 (Pseudomonas aeruginosa [15]): 1.25 µM | IC50 (Pseudomonas aeruginosa [16]): 20 µM | IC50 (Pseudomonas aeruginosa [17]): 20 µM

SMILES: COc1c(O)cc(O)c2c(=O)cc(-c3ccccc3)oc12 [WOGONIN]
IC50 (Pseudomonas aeruginosa [18]): 15 µg/mL (≈ 52.8 µM) | IC50 (Pseudomonas aeruginosa [19]): 15 µg/mL (≈ 52.8 µM) | IC50 (Pseudomonas aeruginosa [20]): 15 µg/mL (≈ 52.8 µM) | IC50 (Pseudomonas aeruginosa [21]): 15 µg/mL (≈ 52.8 µM)

IC50 (Pseudomonas aeruginosa [23]): 50 µM
SMILES: O=C(/C=C/c1ccc(O)c(O)c1)c1ccc(O)cc1O [BUTEIN]
Activity (Pseudomonas aeruginosa [22]): 72.45%

IC50 [24]: 3.53 µM
SMILES: [O-][S+](Cc1ccc(Cl)cc1)c1nnc(-c2ccccc2)o1 (stereo not given)
Activity (Pseudomonas aeruginosa [25]): 46.8%

Reference: ChEMBL document CHEMBL6153025, “Multidrug-resistant bacteria quorum-sensing inhibitors: A particular focus on Pseudomonasaeruginosa” (Eur J Med Chem, 2025)
